Experimental data from ChEMBL document CHEMBL1136630, “Cancer chemotherapy: a SN-38 (7-ethyl-10-hydroxycamptothecin) glucuronide prodrug for treatment by a PMT (Prodrug MonoTherapy) strategy” (Bioorg Med Chem Lett, 2003).

Experiments:
[1] = Half-life time was determined; assay type: ADME
[2] = test system: HT-29; experiment: In vitro inhibitory concentration required against HT-29 human colon cancer cells in the presence of beta-D-glucuronidase; assay type: functional, cell-based
[3] = test system: HT-29; experiment: In vitro inhibitory concentration required against HT-29 human colon cancer cells; assay type: functional, cell-based

CCc1c2c(nc3ccc(OC(=O)N(C)c4cc([N+](=O)[O-])ccc4OC4CC(C(=O)O)C(O)C(O)C4O)cc13)C1CC3=C(COC(=O)[C@]3(O)CC)C(=O)N1C2 (some centres undefined)
half-life [1]: 12.7 min | IC50 [2]: 26 nM | IC50 [3]: 1980 nM

CCc1c2c(nc3ccc(O)cc13)-c1cc3c(c(=O)n1C2)COC(=O)[C@]3(O)CC [7-ETHYL-10-HYDROXYCAMPTOTHECIN]
IC50 [3]: 27.3 nM
